≈ marks a conversion by molar mass, not a printed value.
Legend:
[1] = tested on: Enterococcus faecalis ATCC 19433; assay: Inhibition of bacterial growth in culture, spiral gradient endpoint assay (MIC); assay type: cell-based; conditions: Enterococcus faecalis, ATCC 19433 /, 16 h, read-out: MIC E. faecalis, Mueller-Hinton II agar, 16 h at 37° C.
Description: J. Microbiol. Meths. […] Int. J. Exp. Clin. Chemother. […] Adv.

[2] = tested on: Staphylococcus aureus ATCC 12600; assay: as above; conditions: Staphylococcus aureus, ATCC12600, 16 h, read-out: MIC S. aureus 12600, Mueller-Hinton II agar, 16 h at 37° C.
[3] = tested on: Escherichia coli D21f2tolC; assay: microbe, parasite or virus in culture; conditions: 16 h, read-out: MIC E. coli D21f2tolC, Mueller-Hinton II agar, 16 h at 37° C.

| Structure (SMILES) | MIC [1] | MIC [2] | MIC [3] |
| --- | --- | --- | --- |
| Cc1cc(Oc2ccc(F)cc2)ccc1CCC(=O)c1c(O)cc(O)cc1O [Example 34, 3-(4-(4-fluorophenoxy)-2-methylphenyl)-1-(2,4,6-trihydroxyphenyl)propan-1-one] | 5.2 µg/mL (≈ 13.6 µM) | 3.6 µg/mL (≈ 9.41 µM) | 1.1 µg/mL (≈ 2.88 µM) |
| O=C(CCc1ccc(Oc2ccc(C(F)(F)F)cc2)cc1)c1c(O)cc(O)cc1O [Example 35, 3-(4-(4-(trifluoromethyl)phenoxy)phenyl)-1-(2,4,6-trihydroxyphenyl)propan-1-one] | 5.1 µg/mL (≈ 12.2 µM) | 3.5 µg/mL (≈ 8.37 µM) | 1.3 µg/mL (≈ 3.11 µM) |
| Cc1cc(Oc2ccc(F)cc2)ccc1C1CC1C(=O)c1c(O)cc(O)cc1O (stereo not drawn) [Example 36, (2-(4-(4-fluorophenoxy)-2-methylphenyl)cyclopropyl)(2,4,6-trihydroxyphenyl)methanone] | 4.4 µg/mL (≈ 11.2 µM) | 2.4 µg/mL (≈ 6.09 µM) | 1.7 µg/mL (≈ 4.31 µM) |
| O=C(CCc1ccc(Oc2ccc(F)cc2)cc1C(F)(F)F)c1c(O)cc(O)cc1O [Example 37, 3-(4-(4-fluorophenoxy)-2-(trifluoromethyl)phenyl)-1-(2,4,6-trihydroxyphenyl)propan-1-one] | 4.4 µg/mL (≈ 10.1 µM) | 3.5 µg/mL (≈ 8.02 µM) | 2.4 µg/mL (≈ 5.5 µM) |
| COc1ccc(C2CC2C(=O)c2c(O)cc(O)cc2O)cc1 (stereo not drawn) [Example 38, (2-(4-methoxyphenyl)cyclopropyl)(2,4,6-trihydroxyphenyl)methanone] | > 40 µg/mL | > 40 µg/mL | > 40 µg/mL |
| Cc1cc(Oc2ccccc2)ccc1C1CC1C(=O)c1c(O)cc(O)cc1O (stereo not drawn) [Example 39, (2-(2-methyl-4-phenoxyphenyl)cyclopropyl)(2,4,6-trihydroxyphenyl)methanone] | 4.1 µg/mL (≈ 10.9 µM) | 3.6 µg/mL (≈ 9.56 µM) | 1.6 µg/mL (≈ 4.25 µM) |
| Cc1cc(Oc2ccccc2)ccc1/C=C/C(=O)c1c(O)cc(O)c(Cl)c1O [Example 40, (E)-1-(3-chloro-2,4,6-trihydroxyphenyl)-3-(2-methyl-4-phenoxyphenyl)prop-2-en-1-one] | > 40 µg/mL | > 40 µg/mL | 9.4 µg/mL (≈ 23.7 µM) |
| Cc1cc(Oc2ccccc2)ccc1CCC(=O)c1c(O)cc(O)c(Cl)c1O [Example 41, 1-(3-chloro-2,4,6-trihydroxyphenyl)-3-(2-methyl-4-phenoxyphenyl)propan-1-one] | 19 µg/mL (≈ 47.6 µM) | 19 µg/mL (≈ 47.6 µM) | 9.4 µg/mL (≈ 23.6 µM) |
| Cc1cc(Oc2ccccc2)ccc1C1CC1C(=O)c1c(O)cc(O)c(Cl)c1O (stereo not drawn) [Example 42, (3-chloro-2,4,6-trihydroxyphenyl)(2-(2-methyl-4-phenoxyphenyl)cyclopropyl)methanone] | 16 µg/mL (≈ 38.9 µM) | 14 µg/mL (≈ 34.1 µM) | 10 µg/mL (≈ 24.3 µM) |
| O=C(c1c(O)cc(O)cc1O)C1CC1c1ccc(Oc2ccc(F)cc2F)cc1 (stereo not drawn) [Example 43, (2-(4-(2,4-difluorophenoxy)phenyl)cyclopropyl)(2,4,6-trihydroxyphenyl) methanone] | 8.4 µg/mL (≈ 21.1 µM) | 6.6 µg/mL (≈ 16.6 µM) | 2.8 µg/mL (≈ 7.03 µM) |
| O=C(c1c(O)cc(O)cc1O)C1CC1c1ccc(Oc2ccc(F)cc2)cc1C(F)(F)F (stereo not drawn) [Example 44, (2-(4-(4-fluorophenoxy)-2-(trifluoromethyl)phenyl)cyclopropyl)(2,4,6-trihydroxyphenyl)methanone] | 1.8 µg/mL (≈ 4.01 µM) | 1.5 µg/mL (≈ 3.35 µM) | 1.5 µg/mL (≈ 3.35 µM) |
| O=C(CCc1ccc(Oc2ccc(F)cc2)cc1)c1c(O)cc(O)c(Cl)c1O [Example 45, 1-(3-chloro-2,4,6-trihydroxyphenyl)-3-(4-(4-fluorophenoxy)phenyl)propan-1-one] | 11 µg/mL (≈ 27.3 µM) | 9.6 µg/mL (≈ 23.8 µM) | 5.2 µg/mL (≈ 12.9 µM) |
| O=C(c1c(O)cc(O)c(Cl)c1O)C1CC1c1ccc(Oc2ccc(F)cc2)cc1 (stereo not drawn) [Example 46, (3-chloro-2,4,6-trihydroxyphenyl)(2-(4-(4-fluorophenoxy)phenyl)cyclopropyl)methanone] | 12 µg/mL (≈ 28.9 µM) | 9.6 µg/mL (≈ 23.1 µM) | 6.6 µg/mL (≈ 15.9 µM) |
| O=C(c1c(O)cc(O)cc1O)C1CC1c1ccc(Cl)cc1C(F)(F)F (stereo not drawn) [Example 47, (2-(4-chloro-2-(trifluoromethyl)phenyl)cyclopropyl)(2,4,6-trihydroxyphenyl)methanone] | 9.6 µg/mL (≈ 25.8 µM) | 9.6 µg/mL (≈ 25.8 µM) | 4.8 µg/mL (≈ 12.9 µM) |
| O=C(/C=C/c1ccc(Oc2ccc(F)cc2)cc1)c1c(O)cc(O)c(Cl)c1O [Example 48, (E)-1-(3-chloro-2,4,6-trihydroxyphenyl)-3-(4-(4-fluorophenoxy)phenyl)prop-2-en-1-one] | > 40 µg/mL | > 40 µg/mL | 20 µg/mL (≈ 49.9 µM) |
| O=C(CCc1ccc(Oc2ccc(F)cc2)cc1C(F)(F)F)c1c(O)cc(O)c(Cl)c1O [Example 49, 1-(3-chloro-2,4,6-trihydroxyphenyl)-3-(4-(4-fluorophenoxy)-2-(trifluoromethyl)phenyl)propan-1-one] | 12 µg/mL (≈ 25.5 µM) | 12 µg/mL (≈ 25.5 µM) | 12 µg/mL (≈ 25.5 µM) |

| Structure (SMILES) | MIC [1] | MIC [2] | MIC [3] |
| --- | --- | --- | --- |
| Cc1cc(Oc2ccc(F)cc2)ccc1CCC(=O)c1c(O)cc(O)c(Cl)c1O [Example 50, 1-(3-chloro-2,4,6-trihydroxyphenyl)-3-(4-(4-fluorophenoxy)-2-methylphenyl)propan-1-one] | 18 µg/mL (≈ 43.2 µM) | 16 µg/mL (≈ 38.4 µM) | 19 µg/mL (≈ 45.6 µM) |
| O=C(c1c(O)cc(O)c(Cl)c1O)C1CC1c1ccc(Oc2ccc(F)cc2)cc1C(F)(F)F (stereo not drawn) [Example 51, (3-chloro-2,4,6-trihydroxyphenyl)(2-(4-(4-fluorophenoxy)-2-(trifluoromethyl)phenyl)cyclopropyl)methanone] | 15 µg/mL (≈ 31.1 µM) | 11 µg/mL (≈ 22.8 µM) | 16 µg/mL (≈ 33.1 µM) |
| Cc1cc(Oc2ccc(F)cc2)ccc1C1CC1C(=O)c1c(O)cc(O)c(Cl)c1O (stereo not drawn) [Example 52, (3-chloro-2,4,6-trihydroxyphenyl)(2-(4-(4-fluorophenoxy)-2-methylphenyl)cyclopropyl)methanone] | 5.2 µg/mL (≈ 12.1 µM) | 3.2 µg/mL (≈ 7.46 µM) | 7.5 µg/mL (≈ 17.5 µM) |
| Cc1cc(Cl)ccc1C1CC1C(=O)c1c(O)cc(O)cc1O (stereo not drawn) [Example 53, (2-(4-chloro-2-methylphenyl)cyclopropyl)(2,4,6-trihydroxyphenyl)methanone] | 5.3 µg/mL (≈ 16.6 µM) | 4.7 µg/mL (≈ 14.7 µM) | 4.7 µg/mL (≈ 14.7 µM) |
| O=C(c1c(O)cc(O)c(Cl)c1O)C1CC1c1ccc(Cl)cc1C(F)(F)F (stereo not drawn) [Example 54, (3-chloro-2,4,6-trihydroxyphenyl)(2-(4-chloro-2-(trifluoromethyl)phenyl)cyclopropyl)methanone] | 17 µg/mL (≈ 41.8 µM) | 12 µg/mL (≈ 29.5 µM) | 17 µg/mL (≈ 41.8 µM) |
| O=C(c1c(O)cc(O)c(Cl)c1O)C1CC1c1ccc(Cl)cc1 (stereo not drawn) [Example 55, (3-chloro-2,4,6-trihydroxyphenyl)(2-(4-chlorophenyl)cyclopropyl)methanone] | 22 µg/mL (≈ 64.9 µM) | 17 µg/mL (≈ 50.1 µM) | > 40 µg/mL |
| Cc1cc(Cl)ccc1C1CC1C(=O)c1c(O)cc(O)c(Cl)c1O (stereo not drawn) [Example 56, (3-chloro-2,4,6-trihydroxyphenyl)(2-(4-chloro-2-methylphenyl)cyclopropyl)methanone] | 22 µg/mL (≈ 62.3 µM) | 17 µg/mL (≈ 48.1 µM) | > 40 µg/mL |
| O=C(c1c(O)cc(O)cc1O)C1CC1c1ccc(C(F)(F)F)cc1C(F)(F)F (stereo not drawn) [Example 57, (2-(2,4-bis(trifluoromethyl)phenyl)cyclopropyl)(2,4,6-trihydroxyphenyl)methanone] | 5.7 µg/mL (≈ 14 µM) | 4.3 µg/mL (≈ 10.6 µM) | 3.5 µg/mL (≈ 8.61 µM) |
| O=C(c1c(O)cc(O)cc1O)C1CC1c1ccc(C(F)(F)F)cc1 (stereo not drawn) [Example 58, (2-(4-(trifluoromethyl)phenyl)cyclopropyl)(2,4,6-trihydroxyphenyl)methanone] | 12 µg/mL (≈ 35.5 µM) | 10 µg/mL (≈ 29.6 µM) | 3.9 µg/mL (≈ 11.5 µM) |
| CCCC1=C(O)C(CCC)(CCC)C(=O)C(C(=O)C2CC2c2ccc(Oc3ccccc3)cc2)=C1O (stereo not drawn) [Example 59, 3,5-dihydroxy-2-(2-(4-phenoxyphenyl)cyclopropanecarbonyl)-4,6,6-tripropylcyclohexa-2,4-dienone] | 3 µg/mL (≈ 6.14 µM) | 0.7 µg/mL (≈ 1.43 µM) | 1.1 µg/mL (≈ 2.25 µM) |
| CCCC1(CCC)C(=O)C(C(=O)C2CC2c2ccc(Oc3ccccc3)cc2)=C(O)C=C1O (stereo not drawn) [Example 60, 3,5-dihydroxy-2-(2-(4-phenoxyphenyl)cyclopropanecarbonyl)-6,6-dipropylcyclohexa-2,4-dien-1one] | > 40 µg/mL | 10 µg/mL (≈ 22.4 µM) | 3.9 µg/mL (≈ 8.73 µM) |
| CCC1=C(O)C(CC)(CC)C(=O)C(C(=O)CCc2ccc(Oc3ccc(F)cc3)cc2)=C1O [Example 61, 4,6,6-triethyl-2-(3-(4-(4-fluorophenoxy)phenyl)propanoyl)-3,5-dihydroxycyclohexa-2,4-dienone] | 0.44 µg/mL (≈ 0.972 µM) | 0.56 µg/mL (≈ 1.24 µM) | 0.24 µg/mL (≈ 0.53 µM) |
| CCC1=C(O)C(CC)(CC)C(=O)C(C(=O)C2CC2c2ccc(Oc3ccc(F)cc3)cc2)=C1O (stereo not drawn) [Example 62, 4,6,6-triethyl-2-(2-(4-(4-fluorophenoxy)phenyl)cyclopropanecarbonyl)-3,5-dihydroxycyclohexa-2,4-dienone] | 0.51 µg/mL (≈ 1.1 µM) | 0.4 µg/mL (≈ 0.861 µM) | 0.28 µg/mL (≈ 0.603 µM) |
| CCCC1(CCC)C(=O)C(C(=O)CCc2ccc(Oc3ccc(F)cc3)cc2)=C(O)C=C1O [Example 63, 2-(3-(4-(4-fluorophenoxy)phenyl)propanoyl)-3,5-dihydroxy-6,6-dipropylcyclohexa-2,4-dienone] | > 40 µg/mL | 5.1 µg/mL (≈ 11.3 µM) | 2.4 µg/mL (≈ 5.3 µM) |
| CCCC1=C(O)C(CCC)(CCC)C(=O)C(C(=O)CCc2ccc(Oc3ccc(F)cc3)cc2)=C1O [Example 64, 2-(3-(4-(4-fluorophenoxy)phenyl)propanoyl)-3,5-dihydroxy-4,6,6-tripropylcyclohexa-2,4-dienone] | 0.34 µg/mL (≈ 0.687 µM) | 0.26 µg/mL (≈ 0.526 µM) | 0.34 µg/mL (≈ 0.687 µM) |
| CCCC1(CCC)C(=O)C(C(=O)C2CC2c2ccc(Oc3ccc(F)cc3)cc2)=C(O)C=C1O (stereo not drawn) [Example 65, 2-(2-(4-(4-fluorophenoxy)phenyl)cyclopropanecarbonyl)-3,5-dihydroxy-6,6-dipropylcyclohexa-2,4-dienone] | 1.9 µg/mL (≈ 4.09 µM) | 1.9 µg/mL (≈ 4.09 µM) | > 40 µg/mL |

Reference: patent publication US10450292B2, “Inhibitors of bacterial RNA polymerase: arylpropanoyl, arylpropenoyl, and arylcyclopropanecarboxyl phloroglucinols” (Rutgers, The State University of New Jersey, priority 2015, dated 2019)
